Patent publication US9549988B2, “Pharmaceutical compounds targeted by MIF affinity-tethered moieties” (RJS Biologics LLC, priority 2013, dated 2017)
Where two headings read alike, the source gives them in different places. Blank lines part the entries; values can stand above or below the compound they belong to.

Assays:
[1] = test system: large cell lung cancer cell lines (NCI-H460); assay: WST-8 cellular proliferation assay, NCI-H460 lung cancer cells; format: cell-based; conditions: for IC50: Table 4, EGFRi derivatives, WST-8, read-out: IC50 Cancer Cells ATCC NCI-H460; for Selectivity: Table 4, 1° fibroblasts versus NCI-H460 cancer cells
[2] = test system: Normal Human Adult Dermal Fibroblasts (ATCC PCS-201-012); assay: WST-8 cellular proliferation assay, primary dermal fibroblasts; format: cell-based; conditions: for IC50: read-out: IC50 1° Fibroblasts, Table 4, EGFRi derivatives
Experimental: (§1) Assays were performed according to the manufactures instructions.

[3] = test system: THP-1 leukemia cells mixed with non-cancerous PBMC cells; assay: Flow cytometry drug uptake in mixed THP-1 / PBMC population; format: cell-based, human; conditions: FIG. 21; THP-1 added to PBMC; 0.8 μM; 2-2.5 h; PE channel
Experimental: This example illustrates an in vitro experiment using predictive models of cancer to show the cellular specificity and potential therapeutic utility of the inventive compounds. The human leukemic cell line THP-1 was grown in RPMI 1640 medium with penicillin, streptomycin, and containing 25 mM Hepes, 0.05 mM 2-mercaptoethanol, 10% fetal bovine serum and 2 mM L-glutamine. Cells washed 2× with Gibco Life Sciences (Grand Island, N.Y.) AIM-V serum free medium and then were inoculated into 96 well microtiter plates in 100 μL at plating densities ranging from 25,000 to 100,000 cells/well. Five to ten million frozen peripheral blood mononuclear cells (PBMCs) (Astarte Biologics, LLC. (Redmond, Wash.)) in a solution of 10% DMSO, 2% human serum albumin in phosphate buffered saline were thawed and immediately washed in AIM-V media. An approximately equal number of these cells (25,000 to 100,000 cells/well) were added to the experimental plate. Doxorubicin was added to a final concentration of 0.8 μM. The microtiter plates were incubated at 37° C., 5% CO2, 95% air and 100% relative humidity for 2-2.5 h then drug uptake was quantified by flow cytometry for example using a BD FACSCanto II (San Jose, Calif.). Doxorubicin uptake was evaluated in the PE channel. Individual cell populations were identified by size, shape and through the use of dye labeled antibodies.

[4] = test system: large cell immunoblastic lymphoma cell lines (ATCC SR); assay: WST-8 cellular proliferation assay, ATCC SR lymphoma cells; format: cell-based; conditions: Table 2; 1° fibroblasts versus ATCC SR cancer cells
Experimental: as §1

THP-1 leukemia cells = assay: Flow cytometry uptake by THP-1 cells in presence of ISO-1; format: cell-based, human; conditions: FIG. 22, 2 hrs at 37° C.
Experimental: This example illustrates an in vitro experiment using predictive models of cancer to show the cellular specificity and potential therapeutic utility of the inventive compounds. The human leukemic cell line THP-1 was grown AIM-V serum free medium Gibco Life Sciences (Grand Island, N.Y.). […] Then the washed THP-1 cells were added to the drug dilutions to start the experiment ˜75,000 cells per well. Test compounds were incubated 2 hrs at 37° C., then the plate was read by flow cytometry BD Canto 2 (80 μl˜25,000 cells). A population of Single Round “average” cells was selected by FSC and SSC—constituting %70 of the total cell population examined. The amount of doxorubicin uptake was evaluated for this population in the PE channel.

[5] = test system: Human tumor cell lines of a cancer screening panel; assay: Sulforhodamine B (SRB) cellular proliferation assay, cancer screening panel; format: cell-based; conditions: 10 μM
Experimental: This example illustrates several in vitro experiments in predictive models of cancer to show the potential therapeutic utility of the disclosed compounds. Human tumor cell lines of a cancer screening panel were grown in RPMI 1640 medium containing 5% fetal bovine serum and 2 mM L-glutamine. Cells were inoculated into 96 well microtiter plates in 100 μL at plating densities ranging from 5,000 to 40,000 cells/well depending on the doubling time of individual cell lines. After cell inoculation, the microtiter plates were incubated at 37° C., 5% CO2, 95% air and 100% relative humidity for 24 h prior to addition of experimental drugs.
After 24 h, two plates of each cell line were fixed in situ with trichloroacetic acid (TCA), to represent a measurement of the cell population for each cell line at the time of drug addition (T=zero). Experimental drugs were solubilized in dimethyl sulfoxide at 400-fold the desired final maximum test concentration and stored frozen prior to use. […]
Following drug addition, the plates were incubated for an additional 48 h at 37° C., 5% CO2, 95% air, and 100% relative humidity. […] Bound stain was subsequently solubilized with 10 mM trizma base, and the absorbance was read on an automated plate reader at a wavelength of 515 nm. […] Using the seven absorbance measurements [time zero, (T=zero), control growth, (C), and test growth in the presence of drug at the five concentration levels (Ti)], the percentage growth was calculated at each of the drug concentrations levels.
Percentage growth inhibition was calculated as: [(Ti−Tzero)/(C−Tzero)]×100 for concentrations for which Ti>/=Tzero [(Ti−Tzero)/Tzero]×100 for concentrations for which Ti<Tzero. Three dose response parameters were calculated for each experimental agent. […] The drug concentration resulting in total growth inhibition (TGI) was calculated from Ti=Tzero. […] The same procedures were used to create FIGS. 19 and 20 except a single 10 μM data point was recorded for each cell line.

[6] = FIG. 20, 14 diverse cancer cell lines

IC50 ([1]; Homo sapiens, NCI-H460): 3.6 µM
SMILES: COc1cc2c(Nc3ccc(F)c(Cl)c3)ncnc2cc1OCCOCCNC(=O)COc1ccc(Cn2c(=O)oc3ccc(C)cc32)cc1O [RJS012_1]
Selectivity [1]: 1.9
IC50 ([2]; Homo sapiens, Fibroblast): 6.7 µM

IC50 ([1]; Homo sapiens, NCI-H460): 12.6 µM
SMILES: C#Cc1cccc(Nc2ncnc3cc(OCCOC)c(OCCOC)cc23)c1 [Tarceva ® (Erlotinib), Erlotinib]
Selectivity [1]: 0.37
IC50 ([2]; Homo sapiens, Fibroblast): 4.7 µM

Continued, compound first:

SMILES: COc1cc2ncnc(Nc3ccc(F)c(Cl)c3)c2cc1NC(=O)/C=C/CN1CCCCC1 [Docomitinib (PF-00299804), Docomitinib]
IC50 [1]: 10.6 µM
Selectivity [1]: 0.08
IC50 [2]: 0.89 µM

SMILES: COc1cccc2c1C(=O)c1c(O)c3c(c(O)c1C2=O)C[C@@](O)(C(=O)CO)C[C@@H]3O[C@H]1C[C@H](N)[C@H](O)[C@H](C)O1 [Doxorubicin]
preferential cellular uptake by cancer cells over non-cancerous cells [3]: little preference for the cancer cell line
Selectivity [4]: 26
inhibition of cellular uptake by ISO-1 (THP-1 leukemia cells): not inhibited
IC50 1° Fibroblasts ([2]; Table 2, Doxorubicin derivatives): 0.185 ± 0.5 µM

SMILES: Cc1ccc2oc(=O)n(Cc3ccc(OCC(=O)O)c(O)c3)c2c1 [compound 7, (2-hydroxy-4-[(5-methyl-2-oxo-1,3-benzoxazol-3(2H)-yl)methyl]phenoxy)acetic acid]
inhibition of cancer cell growth (average % inhibition) ([5]; FIG. 19, 17 cancer cell lines): little if any potency
inhibition of cancer cell growth (average % inhibition) [5, 6]: little potency

SMILES: Cc1ccc2oc(=O)n(Cc3ccc(OCC(=O)NCCC[C@@H]4O[C@@H]5O[C@@]6(C)CC[C@H]7[C@H](C)CC[C@@H]([C@H]4C)[C@@]57OO6)c(O)c3)c2c1 [compound 11, 2-(2-hydroxy-4-((5-methyl-2-oxobenzo[d]oxazol-3(2H)-yl)methyl)phenoxy)-N-(3-((3R,5aS,6R,8aS,9R,10S,12R,12aR)-3,6,9-trimethyldecahydro-12H-3,12-epoxy[1,2]dioxepino[4,3-i]isochromen-10-yl)propyl)acetamide]
inhibition of cancer cell growth (average % inhibition) [5, 6]: substantial anti-cancer activity
